Assay results taken from patent US10016425B2, “Anti-ulcerative colitis compound” (KING SAUD UNIVERSITY, priority 2016, dated 2018).

Legend:
Swiss albino mice = details: mouse, in vivo
Description: (§1) The anti-ulcerative colitis compounds were tested on Swiss albino mice of both genders (26-30 g), as well as male Wistar rats (180-200 g). The animals were housed in standard polypropylene cages with wire mesh tops and maintained under standard conditions (temperature of 23±1.0° C., humidity of 55±10%, 12 h light/12 h dark cycle). They were fed with a standard pellet diet with water ad libitum and were allowed to adapt to the laboratory environment for one week before experimentation.
In order to determine the oral median lethal dose (LD50) of the anti-ulcerative colitis compound, the Swiss albino mice (in groups of six), received one of 50, 100, 500, or 1000 mg/kg doses of the target compound. Control animals received the pharmaceutical vehicle only and were kept under the same conditions. Signs of acute toxicity and the number of deaths per dose within 24 hours were recorded.

[1] = system: Acetic Acid-induced Colitis; test: Acetic acid-induced colitis in rats (prophylactic effect, macroscopic scoring); assay type: in vivo, male Wistar rats; details: for percent protection of control colitis: 50 mg/kg orally; for anti-ulcerative colitis activity (in words): administrated orally to rats, 50 mg/kg
Description: as §1
In order to examine the effect of the treatment compounds on ulcerative colitis, five groups of six rats were used. Two groups received compounds 5 and 6 at a dose of 50 mg/kg of body weight. Three other groups of animals were used, with two receiving water orally and the third receiving dexamesathone at a dose of 0.1 mg/kg orally, serving as control, control colitis and standard groups, respectively. All medications were administrated for five successive days. Two hour after the last dose, ulcerative colitis was induced by slowly infusion of 2 mL (4%, v/v) of acetic acid in saline into the colon through a catheter. Two days after the induction of colitis, the animals were sacrificed and colonic segments (8 cm in length and 3 cm proximal to the anus) were excised, opened and were used for macroscopic scoring.
To assess colonic lesions, the colon specimens were weighted and the wet weight/length ratio was calculated for all of the animals. The specimens were examined under a dissecting microscope and mucosal lesions were quantified by the scoring system (0-5): 0=no damage, 1=local edema and inflammation without ulcers; 2=one ulcer without inflammation; 3=one to two ulcers with inflammation and lesion diameter <1 cm; 4=more than two ulcers with lesion diameter 1-2 cm; 5=severe ulceration with lesion diameter >2 cm.
Ulcer area was measured using a plane glass square. Each cell on the glass square was 1 mm^2 in area and the number of cells were counted and the ulcer area was determined for each colon. Ulcer index was measured by summing the lesion score and the ulcer area for each colon specimen. All values were expressed as mean±S.D. Statistical analysis was performed using SPSS 10. Statistical significance of differences between two means was assessed by unpaired student's T-test. Differences at p<0.05, 0.01, and 0.001 were considered statistically significant.

[2] = system: Liver and Kidney Functions; test: Effect on liver and kidney functions in rats after 15 days oral dosing; assay type: in vivo, male Wistar rats; set-up: ALT / AST: dose or concentration left out as unconfirmed; details: oral 15 days; for Blood Urea / ALT / AST / Creatinine: mean ± SD, n = 10; for hepatotoxic manifestation / nephrotoxic manifestations: no significant difference to control at 0.05 level; for ALT / AST / Creatinine: serum
Description: as §1
The male Wister rats were divided into two equal groups each having ten rats. […] After the examination period, 6 hours after the last dose blood samples were collected from the orbital plexus of rats, samples were left to clot at room temperature for 30 minutes and then centrifuged at 1000 rpm for 20 minutes. The collected sera were used for determination of the activity of both […] (AST) and alanine aminotransferase (ALT) as liver markers. Additionally, levels of blood urea and serum creatinine were also estimated as kidney markers.

Compound: COc1cc(/C=N/n2c(-c3ccc(C)cc3)nc3ccccc3c2=O)ccc1O [Compound 5, 3-[(4-hydroxy-3-methoxy-benzylidene)-amino]-2-p-tolyl-3H-quinazolin-4-one]
- behavioral changes and/or mortality in mice (Swiss albino mice): did not produce any behavioral changes and/or mortality
- percent protection of control colitis [1]: 51.2%
- anti-ulcerative colitis activity (in words) [1]: potent anti-ulcerative colitis activity
- Blood Urea [2]: 65.50 ± 1.9 mg/dL
- hepatotoxic manifestation [2]: do not result in hepatotoxic manifestation
- nephrotoxic manifestations [2]: no apparent nephrotoxic manifestations
- ALT [2]: 38.67 ± 0.22 U/l
- AST [2]: 63.23 ± 0.39 U/l
- Creatinine [2]: 0.85 ± 0.02 mg/dL

Compound: COc1cc(/C=N/n2c(-c3ccc(C)cc3)nc3ccccc3c2=O)cc(OC)c1OC [Compound 6, 2-p-tolyl-3-[3,4,5-trimethoxy-benzylidene-amino]-3H-quinazolin-4-one]
- behavioral changes and/or mortality in mice (Swiss albino mice): did not produce any behavioral changes and/or mortality
- percent protection of control colitis [1]: 61.8%
- anti-ulcerative colitis activity (in words) [1]: potent anti-ulcerative colitis activity
- Blood Urea [2]: 65.50 ± 1.9 mg/dL
- hepatotoxic manifestation [2]: do not result in hepatotoxic manifestation
- nephrotoxic manifestations [2]: no apparent nephrotoxic manifestations
- ALT [2]: 38.67 ± 0.22 U/l
- AST [2]: 63.23 ± 0.39 U/l
- Creatinine [2]: 0.85 ± 0.02 mg/dL

Compound: C[C@@H]1C[C@H]2[C@@H]3CCC4=CC(=O)C=C[C@]4(C)[C@@]3(F)[C@@H](O)C[C@]2(C)[C@@]1(O)C(=O)CO [Dexamethasone, reference compound]
- percent protection ([1]; 0.1 mg/kg orally): 72.2%
